Measurements published in US20250129135A1, “Multi-Agonist and Use Thereof” (priority 2021, published 2025).
Starred links: 1 amine or outer side, 2 acyl side, 3 side chain; linkers in the order of their positions; H or OH if unused. Non-standard residues stand in square brackets, D forms with d. Residues, ends and D or L forms follow the SMILES beside them. Groups on a side chain read outwards from the residue. *: point of attachment. C20 diacid = O=C(O)CCCCCCCCCCCCCCCCCCC(=O)*; αMePhe(2-F) = C[C@](N)(Cc1ccccc1F)C(=O)O; γGlu = O=C(O)[C@H](CCC(=O)[*:2])N[*:1]; αMeF = C[C@](N)(Cc1ccccc1)C(=O)O; αMeL = CC(C)C[C@](C)(N)C(=O)O; AEEA = NCCOCCOCC(=O)O; Ac3c = NC1(C(=O)O)CC1; Aib = CC(C)(N)C(=O)O

How the values were obtained:
Human GIP R = biological target: T1, Human GIP R (Homo sapiens, UniProt P48546); assay: cAMP (HTRF) activity in CHO cells stably overexpressing GIP receptor; assay type: cell-based; conditions: for Human GIP R Rel. A (Relative Activity): EC50 of human GIP / EC50 of compound; for EC50: stable transfected cell cAMP activity, at least 3 independent tests
T1 construct: expressed in transfected cells; host or cells: CHO
T1 sequence (P48546 22-466): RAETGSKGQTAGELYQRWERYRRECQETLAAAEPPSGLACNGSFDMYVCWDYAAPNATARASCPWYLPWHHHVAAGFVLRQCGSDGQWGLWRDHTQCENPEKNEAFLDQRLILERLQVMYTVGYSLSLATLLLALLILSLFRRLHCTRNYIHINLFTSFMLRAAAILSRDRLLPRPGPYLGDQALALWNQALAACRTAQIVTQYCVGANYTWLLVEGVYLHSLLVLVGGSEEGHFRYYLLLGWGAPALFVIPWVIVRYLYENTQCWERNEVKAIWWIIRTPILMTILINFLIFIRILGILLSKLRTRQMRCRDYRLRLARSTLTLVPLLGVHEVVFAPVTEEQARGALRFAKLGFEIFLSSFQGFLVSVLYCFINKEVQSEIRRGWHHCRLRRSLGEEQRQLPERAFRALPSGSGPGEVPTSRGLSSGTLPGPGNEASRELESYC
Description: (§1) By measuring the cAMP signal response levels of the aforementioned cells, the agonistic activity of individual compound towards the corresponding receptor was determined. The intracellular cAMP content was measured using reagent kit available from Cisbio Corp. based on HTRF (homogeneous time-resolved fluorescence) technology.
(§2) The cell fluid was transferred to 10 ml of HBSS for resuspension, and centrifuged at 1000 rpm for 5 minutes at room temperature.
(§3) 10 μL cell suspension was added to each well in the 384 well plate. […] Using the ECHO liquid transfer system, 100 nL of the prepared compound solution was added to the corresponding cell suspensions in the 384 well plate, rotated and shaken at 1000 rpm for 1 minute to mix evenly, and then incubated at room temperature for 60 minutes. 10 μL of detection reagent was added to each well after drug incubation was completed, and incubation was performed in the kit at room temperature for 60 minutes. […] GraphPad Prism 5 plotting software was used to create compound concentration response curves and EC50 (nM) values was calculated.

Human GCG R = biological target: T2, Human GCG R (Homo sapiens, UniProt P47871); assay: cAMP (HTRF) activity in HEK-293 cells stably overexpressing human GCG receptor; assay type: cell-based; conditions: for Human GCG R Rel. A (Relative Activity): EC50 of human GCG / EC50 of compound
T2 construct: expressed in transfected cells; host or cells: HEK-293
Description: as §1, §2, §3

RIN-m5F cells = assay type: cell-based, rat; conditions: for Rel. A (Relative Activity) on RIN-m5F: relative to GLP-1(7-37)
Description: This experiment measured the cAMP level produced by the compound on RIN-mF cells.
Frozen […] cells were placed in a 37° C. constant temperature water bath for rapid thawing and recovery. The cell solution was transferred to 10 ml of HBSS for resuspension, and centrifuged at 1000 rpm for 5 minutes at room temperature.
(§4) 10 μL cell suspension was added to each well in the 384 well plate. […] Using the ECHO liquid transfer system, 100 nL of the prepared compound solution was added to the corresponding cell suspensions in the 384 well plate, rotated and shaken at 1000 rpm for 1 minute to mix evenly, and then incubated at room temperature for 60 minutes. 10 μL of detection reagent was added to each wells after drug incubation was completed, and incubation was performed for 60 minutes.

3T3-L1 adipocytes = conditions: for Rel. A (Relative Activity) on 3T3-L1 adipocyte: relative to GIP
Description: Mouse 3T3-L1 precursor adipocytes can be induced to differentiate into mature adipocytes. […] After the cells became full and contacted with each other, DMEM differentiation medium containing 20% FBS, 0.5 mM IBMX, 0.4 ug/mL dexamethasone, and 5 ug/mL insulin was used to induce differentiation of 3T3-L1 adipocyte. After 5 days of induction and cultivation, DMEM medium containing […], 4 ug/ml insulin, and 10 uM rosiglitazone was used to continue induction and cultivation for 3 days. Then, DMEM medium containing 10% FBS was used to continue cultivation for 2-3 days to induce mature 3T3-L1 adipocytes.
The cAMP level produced by the compound on 3T3-L1 adipocytes was determined in this experiment. The tested compound solution was diluted step by step according to a concentration gradient of 3 times, to obtain a total of 10 series of concentration solutions. The solutions were added to induced mature 3T3-L1 adipocytes and incubated at room temperature for 60 minutes. 10 μL detection reagent in the kit was added to each well after drug incubation, and incubated at room temperature for another 60 minutes. […] GraphPad Prism 5 plotting software was used to create compound concentration-effect curves and calculation was performed.

[1] = test system: human primary liver cells; assay type: cell-based; conditions: for Rel. A (Relative Activity) on human primary liver cells: relative to GCG
Description: The cAMP levels produced by compounds on human primary liver cells were determined in this experiment. Human primary liver cells were purchased from Lonza (cell product number HUCPG).
Frozen human primary liver cells were placed in a 37° C. constant temperature water bath for rapid thawing and recovery. The cell solution was transferred to 10 ml of HBSS for resuspension, and centrifuged at 1000 rpm for 5 minutes at room temperature.
as §4, with “well” for “wells”

Human GLP-1R = Human GLP-1R (Homo sapiens, UniProt P43220); assay: cAMP (HTRF) activity in HEK-293 cells stably overexpressing human GLP-1 receptor; assay type: cell-based; design: expressed in transfected cells; host or cells: HEK-293; conditions: for Human GLP-1R Rel. A (Relative Activity): EC50 of human GLP-1 (7-37) / EC50 of compound; for EC50: stable transfected cell cAMP activity, at least 3 independent tests
Description: as §1, §2, §3

Human GLP-1R, sequence (P43220 24-463): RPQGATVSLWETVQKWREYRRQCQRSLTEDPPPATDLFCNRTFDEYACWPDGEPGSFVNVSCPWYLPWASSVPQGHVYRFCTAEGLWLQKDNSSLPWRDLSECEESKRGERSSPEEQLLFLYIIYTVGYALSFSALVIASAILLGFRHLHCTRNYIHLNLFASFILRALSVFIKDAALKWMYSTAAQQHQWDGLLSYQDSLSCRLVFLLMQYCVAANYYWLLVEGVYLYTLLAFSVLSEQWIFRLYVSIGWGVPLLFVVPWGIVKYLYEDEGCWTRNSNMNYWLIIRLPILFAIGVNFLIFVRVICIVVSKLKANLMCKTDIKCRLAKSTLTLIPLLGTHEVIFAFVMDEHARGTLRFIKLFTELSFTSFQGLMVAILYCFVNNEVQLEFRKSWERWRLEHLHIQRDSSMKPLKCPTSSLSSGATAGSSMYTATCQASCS
T2 sequence (P47871 26-477): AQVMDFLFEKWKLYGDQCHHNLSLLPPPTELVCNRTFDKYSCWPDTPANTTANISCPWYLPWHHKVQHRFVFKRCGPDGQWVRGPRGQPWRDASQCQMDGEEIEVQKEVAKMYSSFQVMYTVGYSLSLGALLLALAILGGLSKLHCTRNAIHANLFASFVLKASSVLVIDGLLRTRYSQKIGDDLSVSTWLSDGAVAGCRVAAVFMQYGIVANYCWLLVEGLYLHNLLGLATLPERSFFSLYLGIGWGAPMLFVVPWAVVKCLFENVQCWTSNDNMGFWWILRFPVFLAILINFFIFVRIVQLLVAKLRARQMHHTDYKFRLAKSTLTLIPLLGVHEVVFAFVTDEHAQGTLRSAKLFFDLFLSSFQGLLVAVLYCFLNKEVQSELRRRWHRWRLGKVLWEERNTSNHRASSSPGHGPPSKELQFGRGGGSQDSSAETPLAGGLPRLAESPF

SMILES: CC[C@H](C)[C@H](NC(=O)[C@H](Cc1ccccc1)NC(=O)[C@H](C)NC(=O)C(C)(C)NC(=O)[C@H](CCC(N)=O)NC(=O)[C@H](C)NC(=O)[C@H](CCCCNC(=O)COCCOCCNC(=O)COCCOCCNC(=O)CC[C@H](NC(=O)CCCCCCCCCCCCCCCCCCC(=O)O)C(=O)O)NC(=O)[C@H](CCCCN)NC(=O)[C@H](CC(=O)O)NC(=O)[C@H](CC(C)C)NC(=O)[C@](C)(CC(C)C)NC(=O)[C@@H](NC(=O)[C@H](CO)NC(=O)[C@H](Cc1ccc(O)cc1)NC(=O)[C@H](CC(=O)O)NC(=O)[C@H](CO)NC(=O)[C@@H](NC(=O)[C@](C)(Cc1ccccc1)NC(=O)[C@@H](NC(=O)CNC(=O)[C@H](CCC(N)=O)NC(=O)C(C)(C)NC(=O)[C@@H](N)Cc1ccc(O)cc1)[C@@H](C)O)[C@@H](C)O)[C@@H](C)CC)C(=O)N[C@@H](CCC(=O)O)C(=O)N[C@@H](Cc1ccc(O)cc1)C(=O)N[C@@H](CC(C)C)C(=O)N[C@@H](CC(C)C)C(=O)N[C@@H](CCC(=O)O)C(=O)N[C@H](C(=O)N[C@@H](Cc1c[nH]cn1)C(=O)N1CCC[C@H]1C(=O)N[C@@H](CO)C(=O)N[C@@H](CO)C(=O)NCC(=O)N[C@@H](C)C(=O)N1CCC[C@H]1C(=O)N1CCC[C@H]1C(=O)NC1(C(=O)N[C@@H](CO)C(N)=O)CC1)[C@@H](C)O [Compound 2] (H-Y[Aib]QGT[αMeF]TSDYSI[αMeL]LDKK([AEEA-AEEA-γGlu-C20 diacid])AQ[Aib]AFIEYLLETHPSSGAPP[Ac3c]S-NH2; N-terminus assumed)
- Human GIP R Rel. A (Relative Activity) (Human GIP R): 724.00%
- EC50 (Human GIP R): 0.025 nM
- Human GCG R Rel. A (Relative Activity) (Human GCG R): 24.57%
- EC50 (RIN-m5F cells): 0.624 nM
- Rel. A (Relative Activity) on RIN-m5F (RIN-m5F cells): 165.38%
- EC50 (3T3-L1 adipocytes): 2.49 nM
- Rel. A (Relative Activity) on 3T3-L1 adipocyte (3T3-L1 adipocytes): 152.63%
- EC50 [1]: 2.37 nM
- Rel. A (Relative Activity) on human primary liver cells [1]: 164.32%
- Human GLP-1R Rel. A (Relative Activity) (Human GLP-1R): 169.23%
- EC50 (Human GLP-1R): 0.026 nM

SMILES: CC[C@H](C)[C@H](NC(=O)[C@H](Cc1ccccc1)NC(=O)[C@H](C)NC(=O)C(C)(C)NC(=O)[C@H](CCC(N)=O)NC(=O)[C@H](C)NC(=O)[C@H](CCCCNC(=O)COCCOCCNC(=O)COCCOCCNC(=O)CC[C@H](NC(=O)CCCCCCCCCCCCCCCCCCC(=O)O)C(=O)O)NC(=O)[C@H](CCCCN)NC(=O)[C@H](CC(=O)O)NC(=O)[C@H](CC(C)C)NC(=O)[C@](C)(CC(C)C)NC(=O)[C@@H](NC(=O)[C@H](CO)NC(=O)[C@H](Cc1ccc(O)cc1)NC(=O)[C@H](CC(=O)O)NC(=O)[C@H](CO)NC(=O)[C@@H](NC(=O)[C@](C)(Cc1ccccc1F)NC(=O)[C@@H](NC(=O)CNC(=O)[C@H](Cc1c[nH]cn1)NC(=O)C(C)(C)NC(=O)[C@@H](N)Cc1ccc(O)cc1)[C@@H](C)O)[C@@H](C)O)[C@@H](C)CC)C(=O)N[C@@H](CCC(=O)O)C(=O)N[C@@H](Cc1ccc(O)cc1)C(=O)N[C@@H](CC(C)C)C(=O)N[C@@H](CC(C)C)C(=O)N[C@@H](CCC(=O)O)C(=O)NC(C)(C)C(=O)N[C@@H](Cc1c[nH]cn1)C(=O)N1CCC[C@H]1C(=O)N[C@@H](CO)C(=O)N[C@@H](CO)C(=O)NCC(=O)N[C@@H](CCC(N)=O)C(=O)N1CCC[C@H]1C(=O)N1CCC[C@H]1C(=O)N1CCC[C@H]1C(=O)N[C@@H](CO)C(N)=O [Compound 6] (H-Y[Aib]HGT[αMePhe(2-F)]TSDYSI[αMeL]LDKK([AEEA-AEEA-γGlu-C20 diacid])AQ[Aib]AFIEYLLE[Aib]HPSSGQPPPS-NH2; N-terminus assumed)
- Human GIP R Rel. A (Relative Activity) (Human GIP R): 1292.86%
- EC50 (Human GIP R): 0.014 nM
- Human GCG R Rel. A (Relative Activity) (Human GCG R): 98.28%
- EC50 (Human GCG R; stable transfected cell cAMP activity, at least 3 independent tests): 0.058 nM
- EC50 (RIN-m5F cells): 1.59 nM
- Rel. A (Relative Activity) on RIN-m5F (RIN-m5F cells): 64.74%
- EC50 (3T3-L1 adipocytes): 1.01 nM
- Rel. A (Relative Activity) on 3T3-L1 adipocyte (3T3-L1 adipocytes): 374.58%
- EC50 [1]: 0.299 nM
- Rel. A (Relative Activity) on human primary liver cells [1]: 1301.34%
- Human GLP-1R Rel. A (Relative Activity) (Human GLP-1R): 220.00%
- EC50 (Human GLP-1R): 0.02 nM

SMILES: CC[C@H](C)[C@H](NC(=O)[C@H](Cc1ccccc1)NC(=O)[C@H](C)NC(=O)C(C)(C)NC(=O)[C@H](CCC(N)=O)NC(=O)[C@H](C)NC(=O)[C@H](CCCCNC(=O)COCCOCCNC(=O)COCCOCCNC(=O)CC[C@H](NC(=O)CCCCCCCCCCCCCCCCCCC(=O)O)C(=O)O)NC(=O)[C@H](CCCCN)NC(=O)[C@H](CC(=O)O)NC(=O)[C@H](CC(C)C)NC(=O)[C@](C)(CC(C)C)NC(=O)[C@@H](NC(=O)[C@H](CO)NC(=O)[C@H](Cc1ccc(O)cc1)NC(=O)[C@H](CC(=O)O)NC(=O)[C@H](CO)NC(=O)[C@@H](NC(=O)[C@](C)(Cc1ccccc1F)NC(=O)[C@@H](NC(=O)CNC(=O)[C@H](CCC(N)=O)NC(=O)C(C)(C)NC(=O)[C@@H](N)Cc1ccc(O)cc1)[C@@H](C)O)[C@@H](C)O)[C@@H](C)CC)C(=O)N[C@@H](CCC(=O)O)C(=O)N[C@@H](Cc1ccccc1)C(=O)N[C@@H](CC(C)C)C(=O)N[C@@H](CC(C)C)C(=O)N[C@@H](CCC(=O)O)C(=O)NCC(=O)N[C@@H](CCCNC(=N)N)C(=O)N1CCC[C@H]1C(=O)N[C@@H](CO)C(=O)N[C@@H](CO)C(=O)NC(C)(C)C(=O)N[C@@H](Cc1c[nH]cn1)C(=O)N1CCC[C@H]1C(=O)N1CCC[C@H]1C(=O)N1CCC[C@H]1C(=O)N[C@@H](CO)C(N)=O [Compound 25]
- Human GIP R Rel. A (Relative Activity) (Human GIP R): 1392.31%
- EC50 (Human GIP R): 0.013 nM
- Human GCG R Rel. A (Relative Activity) (Human GCG R): 167.65%
- EC50 (RIN-m5F cells): 0.202 nM
- Rel. A (Relative Activity) on RIN-m5F (RIN-m5F cells): 510.89%
- EC50 (3T3-L1 adipocytes): 0.918 nM
- Rel. A (Relative Activity) on 3T3-L1 adipocyte (3T3-L1 adipocytes): 414.16%
- EC50 [1]: 0.649 nM
- Rel. A (Relative Activity) on human primary liver cells [1]: 599.54%
- Human GLP-1R Rel. A (Relative Activity) (Human GLP-1R): 141.94%
